Article PMC8309073, “Collagenase and Tyrosinase Inhibitory Effect of Isolated Constituents from the Moss Polytrichum formosum” (Plants, 2021)

Tests used:
[1] = molecular target: T1, mushroom tyrosinase (Agaricus bisporus, UniProt C7FF04); experiment: spectrophotometric L-tyrosine to dopachrome assay, […] nm; also retained in Target Binding (RA […], reference); format: biochemical
T1 construct: gene PPO3; T3824-250KU, Sigma-Aldrich

[2] = molecular target: collagenase; experiment: FALGPA hydrolysis assay; also retained in Target Binding ultrafiltration UHPLC-MS (RA […]); format: biochemical, Hathewaya histolytica
[3] = molecular target: collagenase; experiment: FALGPA hydrolysis assay (compound purity […]); also retained in Target Binding ultrafiltration UHPLC-MS (RA […]); format: biochemical, Hathewaya histolytica

T1 sequence (C7FF04 2-392): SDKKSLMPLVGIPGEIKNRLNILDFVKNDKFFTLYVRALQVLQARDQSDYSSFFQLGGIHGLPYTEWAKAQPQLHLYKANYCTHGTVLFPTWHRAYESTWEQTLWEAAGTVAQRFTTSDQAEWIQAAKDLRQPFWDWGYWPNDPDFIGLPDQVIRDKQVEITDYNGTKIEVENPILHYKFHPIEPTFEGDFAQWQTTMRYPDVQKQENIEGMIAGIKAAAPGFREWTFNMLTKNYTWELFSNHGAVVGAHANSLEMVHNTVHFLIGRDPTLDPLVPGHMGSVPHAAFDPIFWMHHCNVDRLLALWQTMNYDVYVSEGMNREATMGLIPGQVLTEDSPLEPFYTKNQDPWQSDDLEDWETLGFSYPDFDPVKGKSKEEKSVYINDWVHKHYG

O=C1C[C@@H]2c3ccccc3O[C@H]3c4cc(O)ccc4-c4c(O)cc(O)c1c4[C@H]23 [compound 1, ohioensin A]
inhibition at 200 µM [1]: 30%
IC50 [2]: 72 µM

O=C1C[C@@H]2c3ccccc3O[C@H]3c4ccc(O)c(O)c4-c4c(O)cc(O)c1c4[C@H]23 [compound 2, nor-ohioensin D]
IC50 [3]: 167 µM
